Source: article PMC3813382 (The Journal of General Physiology, 2013)
Numbering of substitutions follows the chain as printed.

Key:
[1] = molecular target: T1, L209T Slo2.1 channels (Homo sapiens, UniProt Q6UVM3, L209T); experiment: Activation of ISlo2.1 by NFA, two-electrode voltage clamp in oocytes; format: cell-based
T1 sequence (Q6UVM3 1-1135 L209T): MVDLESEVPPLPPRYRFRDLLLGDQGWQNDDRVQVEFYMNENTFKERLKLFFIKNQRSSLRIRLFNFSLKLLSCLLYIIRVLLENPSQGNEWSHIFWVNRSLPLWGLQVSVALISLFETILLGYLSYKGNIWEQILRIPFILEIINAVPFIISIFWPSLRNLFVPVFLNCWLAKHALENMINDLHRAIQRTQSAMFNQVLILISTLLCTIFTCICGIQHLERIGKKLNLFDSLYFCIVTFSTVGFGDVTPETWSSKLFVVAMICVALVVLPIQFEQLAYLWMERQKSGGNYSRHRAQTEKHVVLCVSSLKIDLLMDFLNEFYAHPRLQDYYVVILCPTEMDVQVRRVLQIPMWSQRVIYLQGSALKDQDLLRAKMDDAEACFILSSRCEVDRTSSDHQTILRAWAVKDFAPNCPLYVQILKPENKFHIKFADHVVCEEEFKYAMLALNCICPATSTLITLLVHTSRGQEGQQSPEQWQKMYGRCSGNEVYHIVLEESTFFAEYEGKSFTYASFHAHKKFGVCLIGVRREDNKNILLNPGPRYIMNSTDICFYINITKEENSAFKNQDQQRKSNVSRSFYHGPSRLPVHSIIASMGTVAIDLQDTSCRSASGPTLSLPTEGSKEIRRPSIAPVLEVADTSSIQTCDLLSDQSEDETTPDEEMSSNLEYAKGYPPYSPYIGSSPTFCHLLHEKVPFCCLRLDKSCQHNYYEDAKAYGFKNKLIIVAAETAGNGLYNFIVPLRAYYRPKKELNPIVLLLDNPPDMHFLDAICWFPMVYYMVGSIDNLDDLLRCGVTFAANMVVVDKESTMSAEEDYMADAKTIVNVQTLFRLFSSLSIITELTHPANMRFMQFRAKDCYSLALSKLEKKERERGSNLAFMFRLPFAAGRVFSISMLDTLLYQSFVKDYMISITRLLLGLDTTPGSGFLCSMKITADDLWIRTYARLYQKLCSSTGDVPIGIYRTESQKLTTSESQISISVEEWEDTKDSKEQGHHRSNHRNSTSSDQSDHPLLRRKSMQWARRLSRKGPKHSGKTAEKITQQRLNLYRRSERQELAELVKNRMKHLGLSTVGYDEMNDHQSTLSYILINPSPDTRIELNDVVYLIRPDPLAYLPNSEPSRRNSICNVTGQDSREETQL

[2] = molecular target: T2, A266G Slo2.1 channels (Homo sapiens, UniProt Q6UVM3, A266G); experiment: as above; format: cell-based
T2 sequence (Q6UVM3 1-1135 A266G): T1 sequence (Q6UVM3 1-1135 L209T) with T209L, A266G

SMILES: O=C(O)c1cccnc1Nc1cccc(C(F)(F)F)c1 [NFA, niflumic acid]
- EC50 [1]: 106 µM
- Hill coefficient nH of NFA activation ([1]; L209T): 1.39 ± 0.12
- NFA sensitivity of L209T relative to WT Slo2.1 ([1]; L209T vs WT): 20 fold
- EC50 [2]: 380 ± 30 µM
- Hill coefficient nH of NFA activation ([2]; A266G): 1.2 ± 0.03
